Experimental data from US10195156B2, “Compounds and compositions for intracellular delivery of agents” (ModernaTX, Inc., priority 2015, dated 2019).
Like-named read-outs stand apart in the source and are kept apart here.

Legend:
[1] = Particle size and polydispersity index of nanoparticle compositions (Zetasizer Nano ZS); type: physicochemical
In short: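 Zetasizer Nano ZS; samples in 1×PBS; read-out: particle size plus polydispersity index.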

[2] = Encapsulation efficiency of RNA (QUANT-IT RIBOGREEN RNA assay); type: physicochemical
In short: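 RiboGreen fluorescence (ex ~480, em ~520 nm) measured after 15 min at 37 °C on samples at ~5 μg/mL in TE, pH 7.5, ± 2% Triton X-100 solution. After blank subtraction, free RNA is given as intact-sample signal divided by disrupted-sample signal.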

[3] = pKa of nanoparticle compositions; type: physicochemical
[4] = system: luciferase (Luc) mRNA expression; assay: Expression of Luc induced by sample formulations, whole-body bioluminescence after intravenous administration; type: in vivo; conditions: for Total Flux 3 hours / Total Flux 6 hours / Total Flux 24 hours: Table 2
In short: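 Read-out is whole-body bioluminescence at 3, 6 and 24 h after a single intravenous dose of 0.5 mg/kg Luc mRNA in nanoparticle formulations. Groups of n=6 mice; PBS and standard MC3 formulation as references.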

[5] = system: modified luciferase expression; assay: Expression of Luc in different organs (liver, lung, spleen, femur) 6 hours after intravenous administration; type: in vivo; conditions: Table 3, mice, i.v., 0.5 mpk
Experimental: The efficacy of the nanoparticle compositions presented in Tables 1, 1a, 17-1, 19-1, 20-1 and 21-1 was further evaluated by measuring the expression of modified luciferase in the liver, lung, spleen, and femur upon administration of a given composition. Formulations were administered intravenously to mice (n=3) at a dosage of 0.5 mpk and bioluminescence measured after 6 hours. The standard MC3 formulation and a PBS control were also tested.

IL-6 = assay: Cytokine production induced by sample formulations: IL-6; type: in vivo; conditions: Table 4; mice, i.v., 0.5 mpk, 6 hours; in pg/mL (unit assumed)
In short: (§1)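 Cytokine levels were quantified at 6 hours in mice given the nanoparticle compositions i.v. at 0.5 mpk. MC3 standard formulation and PBS served as comparators.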

IP-10 = assay: Cytokine production induced by sample formulations: IP-10; type: in vivo; conditions: Table 4; mice, i.v., 0.5 mpk, 6 hours; in pg/mL (unit assumed)
In short: as §1

hEPO mRNA expression [6] = assay: Expression of hEPO in rats after intravenous administration; type: in vivo
Experimental: PBS (phosphate buffered saline) is used as control.
Formulations were prepared according to Table 5 and included mRNA encoding hEPO.
[…] After the 48 hour time point, livers and spleens were harvested and frozen.

LDLr−/− mice = assay: Expression in LDLr−/− mice (LDLr dependence); type: in vivo; conditions: FIG. 9, FIG. 10
LDL-c = assay: LDL levels in LDLr−/− mice after mRNA encoding the LDL receptor; type: in vivo, LDLR knockout mice
[7] = Tolerability / toxicity in rats (hEPO study); type: in vivo; conditions: FIG. 8, i.v., 2 mg/kg dose
[8] = Lipid levels in liver and spleen 48 hours after administration; type: in vivo, rats; conditions: for concentration at 48 h: Sprague-Dawley, rat, intravenous
Experimental: Formulations were administered intravenously to rats (n=3 or 6) at a dosage of 0.2 mg/kg or 0.5 mg/kg (mpk) and hEPO levels measured at 3, 6, and 24 hour time points. After the 48 hour time point, livers and spleens were harvested and frozen.
The amount of lipid in the liver and spleen 48 hours after administration of a nanoparticle composition was also measured. […] In contrast, approximately 60% of doses including MC3 or Compound 22 remained in the liver after 48 hours. Less than 3% of the dose remained in the spleen for each composition tested.

hEPO mRNA expression [9] = assay: hEPO levels in non-human primates; type: in vivo; conditions: FIG. 10, up to ~50 h
Experimental: FIG. 10 is a graph showing hEPO levels in non-human primates up to ˜50 h after administration of a nanoparticle composition containing Compound 4, compared to a composition containing MC3.
The tolerability and efficacy of nanoparticle compositions to non-human primates is evaluated in Cynomolgus monkeys. Monkeys are administered an optimized nanoparticle composition including an mRNA encoding hEPO once weekly for four weeks. The levels of hEPO protein, mRNA, and cytokine profiles are measured using ELISA-based techniques before and 2, 6, 12, 24, 48, 72, and 120 hours after each administration.

[10] = system: GFP expression in liver cells; assay: Mouse liver immunohistochemistry (IHC) with GFP mRNA; type: in vivo; conditions: FIG. 11, i.v., 0.5 mpk, 6 h (MC3, CD-1) or 8 h (Compound 4, LDLR knockout)
Experimental: FIG. 11 is a pair of images comparing the results of a mouse liver immunohistochemistry (IHC) using mRNA expressing green fluorescent protein (GFP) after administration of nanoparticle compositions containing Compound 4 and MC3.
FIG. 16 is a graph showing GFP levels in the livers of LDLR knockout mice at 30 min to 24 h after intravenous administration of an eGFP RNA in a lipid composition containing Compound 4. The liver GFP levels were determined via IHC. The square markers represent the number of GFP positive cells following administration of a dose of 0.1 mpk of the composition. The circular markers represent the number of GFP positive cells following administration of a dose of 0.5 mpk of the composition.

Luc expression = assay: ApoE dependence of luciferase expression (ApoE knockout vs. wild-type mice); type: in vivo; conditions: 0.5 mpk, 6 h
Description: FIG. 17 is a pair of graphs showing the ApoE dependence of luciferase (“Luc”) expression following administration of a composition containing Luc mRNA and Compound 4 to mice at a dose 0.5 mpk. The expression following administration of a composition containing Luc mRNA and MC3 is presented for comparison. […] The % change in Luc expression in livers of ApoE knockout vs. wild-type mice (i.e., (WT mean expression-KO mean expression)/WT mean expression]*100%) was 91.9% for Compound 4 and 97.5% for MC3. […] The % change in expression in spleens of ApoE knockout vs. wild-type mice was 4.34% for Compound 4 and 72.2% for MC3. Numbers 1-4 refer to the following: 1: Composition containing Compound 4, administered to ApoE knockout mice; 2: Composition containing Compound 4, administered to wild-type mice; 3: Composition containing MC3, administered to ApoE knockout mice; 4: Composition containing MC3, administered to wild-type mice.

[11] = Concentration of RNA in nanoparticle composition (ultraviolet-visible spectroscopy); type: physicochemical; conditions: Table 5, hEPO mRNA
Experimental: Ultraviolet-visible spectroscopy can be used to determine the concentration of a therapeutic and/or prophylactic agent (e.g., RNA) in nanoparticle compositions. 100 μL of the diluted formulation in 1×PBS is added to 900 μL of a 4:1 (v/v) mixture of methanol and chloroform. After mixing, the absorbance spectrum of the solution is recorded, for example, between 230 nm and 330 nm on a DU 800 spectrophotometer (Beckman Coulter, Beckman Coulter, Inc., Brea, Calif.). The concentration of therapeutic and/or prophylactic agent in the nanoparticle composition can be calculated based on the extinction coefficient of the therapeutic and/or prophylactic agent used in the composition and on the difference between the absorbance at a wavelength of, for example, 260 nm and the baseline value at a wavelength of, for example, 330 nm.

[12] = Table 1, rows without footnote mark
[13] = Table 1, rows without footnote mark (lipid:DOPE:cholesterol:PEG-DMG 40:20:38.5:1.5, Luc mRNA; MC3 standard formulation)
[14] = Table 5, hEPO mRNA, 40:20:38.5:1.5 Lipid:DOPE:Chol:PEG-DMG
[15] = Table 5, hEPO mRNA, 50:10:38.5:1.5 Lipid:DSPC:Chol:PEG-DMG

SMILES: CCCCCCCCCCCCN(CCCCCCCCCCCC)CCN(CCCCCCCCCCCC)CC(=O)N1CCN(C(=O)CN(CCCCCCCCCCCC)CCCCCCCCCCCC)CC1 [Compound 11, 2-(Didodecylamino)-1-(4-(N-(2-(didodecylamino)ethyl)-N-dodecylglycyl)piperazin-1-yl)ethan-1-one]
- PDI [1, 12]: 0.099
- Size (nm) [1, 13]: 87.4 nm
- EE (%) [2, 12]: 99.5%
- pKa [3, 12]: 6.54
- Total Flux 3 hours ([4]; mice, i.v., 0.5 mg/kg, 3 hours): 1.23E+10
- Total Flux 6 hours ([4]; mice, i.v., 0.5 mg/kg): 3.81E+09
- Total Flux 24 hours ([4]; mice, i.v., 0.5 mg/kg): 8.20E+08
- Total Flux Femur [5]: 1.47E+06
- Total Flux Liver [5]: 1.67E+09
- Total Flux Lung [5]: 2.21E+06
- Total Flux Spleen [5]: 7.21E+06
- IL-6 (IL-6): 250
- IP-10 (IP-10): 3305
- hEPO expression in rats (in words) (hEPO mRNA expression [6]; FIG. 8, rats, i.v., 2 mpk (Graph A)): comparable to MC3
- LDLr dependence of the lipid (in words) (LDLr−/− mice): LDLr independent lipid
- LDL-c levels in LDLR knockout mice (in words) (LDL-c; FIG. 9 Graph B, mRNA encoding the LDL receptor, 0.5 and 1 mpk): found to drop
- tolerability / toxicity in rats (in words) [7]: improved tolerability as compared to KL22

SMILES: CCCCCCCCCN(CCCCCCCCC)CCN(CCCCCCCCC)CC(=O)N1CCN(C(=O)CN(CCCCCCCCC)CCCCCCCCC)CC1 [Compound 4, 2-(Dinonylamino)-1-(4-(N-(2-(dinonylamino)ethyl)-N-nonylglycyl)piperazin-1-yl)ethan-1-one]
- PDI [1, 12]: 0.120
- Size (nm) [1, 13]: 89.7 nm
- EE (%) [2, 12]: 96.78%
- pKa [3, 12]: 7.12
- AUC (0.1 mpk) (hEPO mRNA expression [6]; hEPO expression in S.D. rats, 0.1 mpk): 2.12E+06
- AUC/MC3 0.1 mpk (hEPO mRNA expression [6]; hEPO expression in S.D. rats, 0.1 mpk, relative to MC3): 1.3
- AUC (1 mpk) (hEPO mRNA expression [6]; hEPO expression in S.D. rats, 1 mpk): 6.79E+07
- AUC/MC3 1 mpk (hEPO mRNA expression [6]; hEPO expression in S.D. rats, 1 mpk, relative to MC3): 0.58
- LDLr dependence of the lipid (in words) (LDLr−/− mice): LDLr independent lipid
- response vs control in vivo at 0.5 mg/kg (LDL-c; Mus musculus, Table 7b, LDLr−/− mice, 0.5 mpk, LDLr, read-out: LDL levels lipid/untreated LDLr−/− mice 0.5 mpk, LDLr): 54%
- concentration at 48 h ([8]; liver, 48 hours after administration, read-out: Lipid in liver): 22000 ng/g
- concentration at 48 h ([8]; spleen, 48 hours after administration, read-out: Lipid in spleen): 5340 ng/g
- % remaining dose in liver ([8]; liver, 48 hours after administration): 38%
- % dose remainng Rat liver (48 h) ([8]; rat liver, 48 h): 37.82%
- % remaining dose in spleen ([8]; spleen, 48 hours after administration): 0.61%
- expression of hEPO compared to MC3 (hEPO mRNA expression [9]): 3 fold
- GFP protein expression in liver cell types (in words) [10]: less protein expression in Kupffer cells
- % change in Luc expression in livers of ApoE knockout vs. wild-type mice (Luc expression; FIG. 17 Graph A, liver): 91.9%
- % change in expression in spleens of ApoE knockout vs. wild-type mice (Luc expression; FIG. 17 Graph B, spleen): 4.34%

SMILES: CCCCCCCCCCCCN(CCCCCCCCCCCC)CCN(CCCCCCCCCCCC)CCN1CCN(CCN(CCCCCCCCC)CCCCCCCCC)CC1 [Compound 23, N^1-(2-(4-(2-(Dinonylamino)ethyl)piperazin-1-yl)ethyl)-N^1,N^2,N^2-tridodecylethane-1,2-diamine]
- PDI [1, 12]: 0.058
- Size (nm) [1, 13]: 85.4 nm
- PDI [1, 14]: 0.16
- Size (nm) [1, 14]: 98.5 nm
- PDI [1, 15]: 0.11
- Size (nm) [1, 15]: 95.2 nm
- EE (%) [2, 12]: 82.9%
- EE (%) [2, 14]: 77.19%
- EE (%) [2, 15]: 51.46%
- pKa [3, 12]: 6.07
- pKa [3, 14]: 6.070
- pKa [3, 15]: 6.164
- Conc. ([11]; 40:20:38.5:1.5 Lipid:DOPE:Chol:PEG-DMG): 438.20 µg/mL
- Conc. ([11]; 50:10:38.5:1.5 Lipid:DSPC:Chol:PEG-DMG): 454.58 µg/mL
- Total Flux 3 hours ([4]; mice, i.v., 0.5 mg/kg, 3 hours): 2.33E+10
- Total Flux 6 hours ([4]; mice, i.v., 0.5 mg/kg): 3.40E+10
- Total Flux 24 hours ([4]; mice, i.v., 0.5 mg/kg): 1.06E+09
- Luc expression in mice compared with MC3 (in words) ([4]; Table 7a): several fold higher
- total flux after 3 hours, rank within the named table (in words) ([4]; mice, i.v., 0.5 mg/kg, 3 hours): highest flux after 3 hours
- Total Flux Femur [5]: 3.17E+06
- Total Flux Liver [5]: 4.94E+09
- Total Flux Lung [5]: 1.51E+07
- Total Flux Spleen [5]: 2.95E+07
- IL-6 (IL-6): 259
- IP-10 (IP-10): 3702
- tolerability / toxicity in rats (in words) [7]: toxic
